The text below walks through data of US7335756B2, “Retinoic acid metabolizing cytochrome P450” (Cytochroma Inc., priority 2001, dated 2008).

For series [1], the target named is T1, CYP26-B (Homo sapiens, UniProt Q9NR63).
T1 sequence (Q9NR63 1-512): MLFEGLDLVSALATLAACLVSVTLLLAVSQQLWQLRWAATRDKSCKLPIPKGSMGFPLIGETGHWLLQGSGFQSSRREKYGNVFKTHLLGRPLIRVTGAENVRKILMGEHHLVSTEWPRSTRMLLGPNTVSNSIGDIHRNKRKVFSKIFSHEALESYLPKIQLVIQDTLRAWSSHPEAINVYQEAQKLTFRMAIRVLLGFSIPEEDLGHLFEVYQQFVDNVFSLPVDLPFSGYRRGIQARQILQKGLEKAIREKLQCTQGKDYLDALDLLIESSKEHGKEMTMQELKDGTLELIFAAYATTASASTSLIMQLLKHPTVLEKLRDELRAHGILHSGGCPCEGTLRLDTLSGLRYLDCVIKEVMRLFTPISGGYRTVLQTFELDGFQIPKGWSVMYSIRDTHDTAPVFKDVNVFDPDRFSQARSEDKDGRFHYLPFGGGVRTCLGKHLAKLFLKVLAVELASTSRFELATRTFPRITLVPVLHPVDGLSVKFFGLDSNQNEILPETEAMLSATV
Kind of series: RA-metabolism cell based assay in CYP26-B-infected Sf9 cells. The following applies: 2 nM [3H]-RA. The method, then:
Recombinant baculovirus expressing either P450RAI-3 or CYP26B (Bac-P450RAI-3 or Bac-CYP26B or CYP26B) was prepared and titrated by end-point dilution and infection of Sf9 cells in 96-well format. Baculovirus expressing vector was co-transfected into Sf9-insect cells. Infected cells were assessed for RA-metabolism after 72 hours post transfection using RA-metabolism cell based assay as follows: the RA-metabolism reaction was started by adding 50 μl of [^3H]-RA solution (20000 cpm, 2 nM final concentration) using an automatic repeating-pipette.
Cells were incubated for 3 hours. The reaction was stopped by adding 5 μl of 10% acetic acid. Organic and aqueous soluble radio-labelled metabolites were extracted using the Bligh-Dyer procedure.

The target of series [2] is T1, CYP26-B. Kind of series: [3H]-RA-metabolism inhibition, transient Cos-CYP26-B cell-based assay. To be noted: at lower concentrations.
Series [3] deals with T2, P450RAI-3 (Homo sapiens, UniProt Q6V0L0, F447L).
T2 sequence (Q6V0L0 1-522 F447L): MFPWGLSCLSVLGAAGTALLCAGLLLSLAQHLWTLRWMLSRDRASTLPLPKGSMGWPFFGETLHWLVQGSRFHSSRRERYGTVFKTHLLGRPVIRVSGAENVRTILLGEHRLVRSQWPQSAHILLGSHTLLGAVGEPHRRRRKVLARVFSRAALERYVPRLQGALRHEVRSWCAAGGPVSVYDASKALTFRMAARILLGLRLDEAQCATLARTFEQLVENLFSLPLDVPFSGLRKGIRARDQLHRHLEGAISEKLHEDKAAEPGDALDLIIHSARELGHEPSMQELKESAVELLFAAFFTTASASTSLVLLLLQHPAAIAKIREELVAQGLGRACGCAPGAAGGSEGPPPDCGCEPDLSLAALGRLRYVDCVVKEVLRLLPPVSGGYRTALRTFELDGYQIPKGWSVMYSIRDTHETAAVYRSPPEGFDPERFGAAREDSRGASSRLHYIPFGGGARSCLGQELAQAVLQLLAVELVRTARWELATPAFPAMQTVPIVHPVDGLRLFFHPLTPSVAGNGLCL
As to the kind of experiment: [3H]-RA-metabolism inhibition in Sf9-Bac-P450RAI-3 insect microsomes. To be noted: 2 nM [3H]-RA, NADPH, 1 hour, read-out: ID50 (nM) Sf9-P450RAI-3. It counts as biochemical. The method, then:
Microsomes from P450RAI-3 and CYP26B infected Sf-9 cells were made as follows: exponentially growing cells were harvested, washed with ice-cold PBS, counted then homogenized and sonicated in lysis buffer containing protease inhibitors cocktail (10^8 cells par 5 ml lyses buffer). Since P450RAI-3 is a microsomal cytochrome, it preferably uses NADPH cytochromic P450 reductase and a flavoprotein for activity. The microsomes were isolated by differential centrifugations (10 min at 800×g, than 10 min at 10,000×g and finally the postmitichondirial supernatant was centrifuged at 100,000×g for 60 min using ultracentrifuge (Beckman). The microsomal pellet was isolated and homogenized gently in the storage buffer containing protease inhibitors cocktail. Protein concentration in the microsomal preparation was determined using a […] reaction assay kit with BSA as standards (Pierce). The absorbance at 562 nm of standards (BSA at 1, 0.5, 0.25, 0.125, and 0.0625 mg/ml) and 3 dilutions of microsomes samples (⅕, 1/10 and 1/20) was determined using an automatic microplate reader (μQuant, BioTek instruments Inc.). The protein concentration directly calculated by the software (KCJunior). […] Microsomes were assessed for P450 content by carbon monoxide assay and total P450 content was determined at 3 nmol/ml. […]

Series [4] deals with T2, P450RAI-3. As to the kind of experiment: [3H]-RA-metabolism inhibition in mammalian microsomes from transient P450RAI-3-transfected Cos cells. Format: biochemical. Also on record: expressed in transfected cells; host or cells: COS-1 (transient, pcDNA-P450RAI-3, Fugene). To be noted: read-out: ID50 (nM) P450RAI-3. The procedure:
RA-metabolism activity was assessed using RA-metabolism microsomes-based assay and Bligh Dyer extraction as follows: Using an automatic repeating-pipette, gently thawed and homogenized microsomes were plated in a 48-well plate in final volume of 150 μl of storage buffer containing 0.5 mg/ml BSA. At indicated concentration 2 μl of compound solution was added to the assay and 2 μl of DMSO was added to MS control (quadruplet) and No-MS control. 50 μl of [^3H]-RA solution (30,000 cpm, 2 nM final concentration) was added. The microsomes assay with the compounds and the [^3H]-ATRA were incubated first for 10 min at 37° C., and then the reaction started by adding 20 μl of NADPH solution (or 1 mM final). After 1-hour incubation the reaction was stopped by adding 5 μl of 10% acetic acid. Organic and aqueous soluble radio-labelled metabolites were extracted using the Bligh-Dyer procedure. Saturated activity obtained in presence of NADPH at 5 μg of microsomes, FIG. 14.
Microsomes prepared from either stable Hela-CYP26-B or transient P450RAI-3-transfected Cos cells were used.

On to `CC1=C(/C=C/C(C)=C/C=C/C(C)=C/C(=O)O)C(C)(C)CCC1` [ATRA, all-trans-retinoic-acid], for which the “metabolism by CYP26-B-infected Sf9-cells” value on CYP26-B [1] was “metabolized ATRA and converted it to water-soluble metabolites”. On CYP26-B [2], the “competition / inhibition of CYP26-B” value was “competed”. Moreover, the IC50 at P450RAI-3 [3] and on P450RAI-3 [4] was 20 nM each time.
